Key:
[1] = biological target: T1, human LXR alpha (Homo sapiens, UniProt Q13133); assay: Radioligand binding assay (SPA), LXR alpha LBD; details: radioligand displacement, LXRα-LBD on SPA beads; read-out: LXRalpha Binding IC50
T1 construct: human LXR alpha (aa 164 to 447); unspecified tag ('tagged versions'); made in house; host or cells: E. coli BL21 (pLysS)
T1 sequence (Q13133 164-447): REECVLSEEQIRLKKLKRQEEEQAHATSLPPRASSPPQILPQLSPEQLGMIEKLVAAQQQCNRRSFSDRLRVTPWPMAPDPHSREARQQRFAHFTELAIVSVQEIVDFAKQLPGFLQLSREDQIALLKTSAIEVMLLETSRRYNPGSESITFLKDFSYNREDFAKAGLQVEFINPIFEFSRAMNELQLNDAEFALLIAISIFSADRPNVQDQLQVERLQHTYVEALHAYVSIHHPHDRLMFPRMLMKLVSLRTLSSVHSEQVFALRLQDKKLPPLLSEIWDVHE
Method: (§1) The following tests were carried out in order to determine the activity of the compounds of the present invention. Background information on the performed assays can be found in: Nichols J S et al. “Development of a scintillation proximity assay for peroxisome proliferator-activated receptor gamma ligand binding domain”, Anal Biochem. 1998, 257: 112-119.
(§2) Mammalian expression vectors were constructed to express full-length human LXR alpha and LXR beta. Bacterial expression vectors were constructed to produce tagged versions of the ligand binding domains (LBD) of human LXR alpha (aa 164 to 447) and human LXR beta (aa 155 to 460). To accomplish this, the portions of the sequences encoding the LBDs were amplified from the full-length clones by PCR and then subcloned into the plasmid vectors. Final clones were verified by DNA sequence analysis (Willy et al., Genes Dev. 1995, 9:1033-45; Song et al., Proc Natl Acad Sci USA. 1994, 91:10809-13).
(§3) Induction, expression, and purification of LBD proteins were performed in E. coli strain BL21 (pLysS) cells by standard methods (Ref: Current Protocols in Molecular Biology, Wiley Press, edited by Ausubel et al).
(§4) Radioligand Binding Assay
(§5) LXR alpha and LXR beta receptor binding were assayed in buffer consisting of 50 mM HEPES, pH 7.4, 10 mM NaCl, 5 mM MgCl2. For each 96-well reaction, 500 ng of LXRα-LBD or 700 ng of LXR beta-LBD proteins were bound to 80 μg or 40 μg SPA beads respectively, in a final volume of 50 μl by shaking. The resulting slurry was incubated for 1 h at RT and centrifuged for 2 min at 1300×g. The supernatant containing unbound protein was removed, and the semi-dry pellet containing the receptor-coated beads was re-suspended in 50 μl of buffer. Radioligand (eg. 100,000 dpm of (N-(2,2,2-trifluoroethyl)-N-[4-(2,2,2-trifluoro-1-hydroxy-1-trifluoromethylethyl)-phenyl]-benzenesulfonamide)) was added, and the reaction incubated at RT for 1 h in the presence of test compounds, and then scintillation proximity counting was performed. All binding assays were performed in 96-well plates and the amount of bound ligand was measured on a Packard TopCount using OptiPlates (Packard). Dose response curves were measured within a range of concentration from 10^−10 M to 10^−4 M.

[2] = biological target: T2, human LXR beta (Homo sapiens, UniProt P55055); assay: Radioligand binding assay (SPA), LXR beta LBD; details: radioligand displacement, LXR beta-LBD on SPA beads; read-out: LXRbeta Binding IC50
T2 construct: human LXR beta (aa 155 to 460); unspecified tag ('tagged versions'); made in house; host or cells: E. coli BL21 (pLysS)
T2 sequence (P55055 155-460): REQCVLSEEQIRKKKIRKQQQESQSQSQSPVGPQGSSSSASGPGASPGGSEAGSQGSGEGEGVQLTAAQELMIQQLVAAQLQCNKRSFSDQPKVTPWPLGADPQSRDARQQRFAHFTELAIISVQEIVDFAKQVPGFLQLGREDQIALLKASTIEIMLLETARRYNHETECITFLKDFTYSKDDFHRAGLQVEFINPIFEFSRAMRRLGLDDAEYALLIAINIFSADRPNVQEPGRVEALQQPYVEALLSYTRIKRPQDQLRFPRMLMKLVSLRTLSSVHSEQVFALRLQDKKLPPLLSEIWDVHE
Method: as §1, §2, §3, §4, §5

Row | SMILES | IC50 [1] | IC50 [2]
1 | CS(=O)(=O)Nc1cccc(-c2ccc(C3CN(S(=O)(=O)c4ccccc4)C(=O)N3c3ccccc3)cc2)c1 (stereo not drawn) [Example 9, N-[4′-(1-Benzenesulfonyl-2-oxo-3-phenyl-imidazolidin-4-yl)-biphenyl-3-yl]-methanesulfonamide] | 425 nM | 360 nM
2 | O=C(O)c1ccc(-c2cccc(C3CN(S(=O)(=O)c4ccccc4)C(=O)N3c3ccccc3)c2)cc1 (stereo not drawn) [Example 5, 3′-(1-Benzenesulfonyl-2-oxo-3-phenyl-imidazolidin-4-yl)-biphenyl-4-carboxylic acid] | 4140 nM | 5420 nM
3 | CC(C)N1C(=O)N(S(=O)(=O)c2ccccc2)CC1c1cccc(-c2cc(F)ccc2F)c1 (stereo not drawn) [Example 32, 1-Benzenesulfonyl-4-(2′,5′-difluoro-biphenyl-3-yl)-3-isopropyl-imidazolidin-2-one] | 950 nM | 99.5 nM
4 | Cc1ccc(C)c(-c2ccc(C3CN(S(=O)(=O)c4ccccc4)C(=O)N3c3ccccc3)cc2)c1 (stereo not drawn) [Example 3, 1-Benzenesulfonyl-4-(2′,5′-dimethyl-biphenyl-4-yl)-3-phenyl-imidazolidin-2-one] | 10200 nM | 5250 nM
5 | Cc1ccc(C)c(-c2cccc([C@H]3CN(C(=O)OC(C)(C)C)C(=O)C[C@H]3c3ccccc3)c2)c1 (relative stereo) [Example 47, Cis-5-(2′,5′-Dimethyl-biphenyl-3-yl)-2-oxo-4-phenyl-piperidine-1-carboxylic acid tert-butyl ester] | 185 nM | 220 nM
6 | O=C(O)c1ccccc1-c1cccc(C2CN(S(=O)(=O)c3ccccc3)C(=O)N2c2ccccc2)c1 (stereo not drawn) [Example 11, 3′-(1-Benzenesulfonyl-2-oxo-3-phenyl-imidazolidin-4-yl)-biphenyl-2-carboxylic acid] | 13000 nM | 46100 nM
7 | Cc1ccccc1N1CCN(S(=O)(=O)c2ccccc2)CC1c1cccc(-c2cccc(S(C)(=O)=O)c2)c1 (stereo not drawn) [Example 50, 4-Benzenesulfonyl-2-(3′-methanesulfonyl-biphenyl-3-yl)-1-o-tolyl-piperazine] | 12300 nM | 165 nM
8 | CS(=O)(=O)c1cccc(-c2cccc(C3CN(S(=O)(=O)c4ccccc4)CC(=O)N3c3ccccc3)c2)c1 (stereo not drawn) [Example 33, 4-Benzenesulfonyl-6-(3′-methanesulfonyl-biphenyl-3-yl)-1-phenyl-piperazin-2-one] | 52700 nM | 530 nM
9 | Cc1ccc(Cl)cc1-c1cccc(C2CN(S(=O)(=O)c3ccccc3)C(=O)N2C(C)C)c1 (stereo not drawn) [Example 26, 1-Benzenesulfonyl-4-(5′-chloro-2′-methyl-biphenyl-3-yl)-3-isopropyl-imidazolidin-2-one] | 1990 nM | 315 nM
10 | Cc1ccc(F)cc1-c1cccc(C2CN(S(=O)(=O)c3ccccc3)C(=O)N2C(C)C)c1 (stereo not drawn) [Example 22, 1-Benzenesulfonyl-4-(5′-fluoro-2′-methyl-biphenyl-3-yl)-3-isopropyl-imidazolidin-2-one] | 4700 nM | 1360 nM
11 | CS(=O)(=O)c1cc(-c2ccc(C3CN(S(=O)(=O)c4ccccc4)C(=O)N3c3ccccc3)cc2)ccc1CO (stereo not drawn) [Example 19, 1-Benzenesulfonyl-4-(4′-hydroxymethyl-3′-methanesulfonyl-biphenyl-4-yl)-3-phenyl-imidazolidin-2-one] | 45 nM | 18 nM
12 | CC(C)N1C(=O)N(S(=O)(=O)c2ccccc2)CC1c1cccc(-c2ccc(CO)c(S(C)(=O)=O)c2)c1 (stereo not drawn) [Example 20, 1-Benzenesulfonyl-4-(4′-hydroxymethyl-3′-methanesulfonyl-biphenyl-3-yl)-3-isopropyl-imidazolidin-2-one] | 6 nM | 1 nM
13 | CS(=O)(=O)c1cccc(-c2cccc(C3CN(S(=O)(=O)c4ccccc4)C(=O)N3c3ccccc3)c2)c1 (stereo not drawn) [Example 7, 1-Benzenesulfonyl-4-(3′-methanesulfonyl-biphenyl-3-yl)-3-phenyl-imidazolidin-2-one] | 90 nM | 4 nM
14 | CS(=O)(=O)c1cc(-c2cccc(C3CN(S(=O)(=O)c4ccccc4)C(=O)N3c3ccccc3)c2)ccc1CO (stereo not drawn) [Example 16, 1-Benzenesulfonyl-4-(4′-hydroxymethyl-3′-methanesulfonyl-biphenyl-3-yl)-3-phenyl-imidazolidin-2-one] | 475 nM | 29 nM
15 | Cc1ccc(C)c(-c2cccc(C3CN(C(=O)OC(C)(C)C)CCC3c3ccccc3)c2)c1 (stereo not drawn) [Example 40, trans-3-(2′,5′-Dimethyl-biphenyl-3-yl)-4-phenyl-piperidine-1-carboxylic add tert-butyl ester] | 44100 nM | 19300 nM
16 | CC(C)N1C(=O)N(S(=O)(=O)c2ccccc2)CC1c1cccc(-c2cccc(S(N)(=O)=O)c2)c1 (stereo not drawn) [Example 24, 3′-(1-Benzenesulfonyl-3-isopropyl-2-oxo-imidazolidin-4-yl)-biphenyl-3-sulfonic acid amide] | 48 nM | 1 nM
17 | CC(C)N1C(=O)N(S(=O)(=O)c2ccccc2)CC1c1cccc(-c2cc(F)ccc2Cl)c1 (stereo not drawn) [Example 25, 1-Benzenesulfonyl-4-(2′-coro-5′-fluoro-biphenyl-3-yl)-3-isopropyl-imidazolidin-2-one] | 2030 nM | 265 nM
18 | CC(C)(C)OC(=O)N1C[C@H](c2cccc(-c3cncc(S(C)(=O)=O)c3)c2)[C@H](c2ccccc2)CC1=O (relative stereo) [Example 46, cis-5-[3-(5-Methanesulfonyl-pyridin-3-yl)-phenyl]-2-oxo-4-phenyl-piperidine-1-carboxylic acid tert-butyl ester] | 8220 nM | 385 nM
19 | CS(=O)(=O)Nc1cccc(-c2cccc(C3CN(S(=O)(=O)c4ccccc4)C(=O)N3c3ccccc3)c2)c1 (stereo not drawn) [Example 8, N-[3′-(1-Benzenesulfonyl-2-oxo-3-phenyl-imidazolidin-4-yl)-biphenyl-3-yl]-methanesulfonamide] | 335 nM | 74.5 nM
20 | O=C(O)c1cccc(-c2ccc(C3CN(S(=O)(=O)c4ccccc4)C(=O)N3c3ccccc3)cc2)c1 (stereo not drawn) [Example 2, 4′-(1-Benzenesulfonyl-2-oxo-3-phenyl-imidazolidin-4-yl)-biphenyl-3-carboxylic acid] | 7970 nM | 8050 nM
21 | NCc1cccc(-c2cccc(C3CN(S(=O)(=O)c4ccccc4)CCN3c3ccccc3)c2)c1 (stereo not drawn) [Example 35, C-[3′-(4-Benzenesulfonyl-1-phenyl-piperazin-2-yl)-biphenyl-3-yl]-methylamine] | 2620 nM | 425 nM
22 | CC(C)N1C(=O)N(S(=O)(=O)c2ccccc2)CC1c1cccc(-c2cncc(S(C)(=O)=O)c2)c1 (stereo not drawn) [Example 23, 1-Benzenesulfonyl-3-isopropyl-4-[3-(5-methanesulfonyl-pyridin-3-yl)-phenyl]-imidazolidin-2-one] | 2790 nM | 25 nM
23 | Cc1ccccc1N1CCN(C(=O)OC(C)(C)C)CC1c1cccc(-c2cncc(S(C)(=O)=O)c2)c1 (stereo not drawn) [Example 49, 3-[3-(5-Methanesulfonyl-pyridin-3-yl)-phenyl]-4-o-tolyl-piperazine-1-carboxylic acid tert-butyl ester] | 8880 nM | 3750 nM
24 | CC(C)(C)OC(=O)N1C[C@H](c2cccc(-c3cccc(S(C)(=O)=O)c3)c2)[C@H](c2ccccc2)CC1=O (relative stereo) [Example 45, Cis-5-(3′-Methanesulfonyl-biphenyl-3-yl)-2-oxo-4-phenyl-piperidine-1-carboxylic acid tert-butyl ester] | 240 nM | 21 nM
